Experimental data taken from patent publication US10670605B2, “Cysteine reactive probes and uses thereof” (The Scripps Research Institute, priority 2015, dated 2020).

How the values were obtained:
Assay in all cases: Competitive isoTOP-ABPP in situ (fragment-treated cells)
Type in all cases: cell-based
[1] = molecular target: T1, cysteines in MDA-MB-231 and Ramos cells (Homo sapiens, UniProt Q5T0N5)
T1 sequence (Q5T0N5 1-605): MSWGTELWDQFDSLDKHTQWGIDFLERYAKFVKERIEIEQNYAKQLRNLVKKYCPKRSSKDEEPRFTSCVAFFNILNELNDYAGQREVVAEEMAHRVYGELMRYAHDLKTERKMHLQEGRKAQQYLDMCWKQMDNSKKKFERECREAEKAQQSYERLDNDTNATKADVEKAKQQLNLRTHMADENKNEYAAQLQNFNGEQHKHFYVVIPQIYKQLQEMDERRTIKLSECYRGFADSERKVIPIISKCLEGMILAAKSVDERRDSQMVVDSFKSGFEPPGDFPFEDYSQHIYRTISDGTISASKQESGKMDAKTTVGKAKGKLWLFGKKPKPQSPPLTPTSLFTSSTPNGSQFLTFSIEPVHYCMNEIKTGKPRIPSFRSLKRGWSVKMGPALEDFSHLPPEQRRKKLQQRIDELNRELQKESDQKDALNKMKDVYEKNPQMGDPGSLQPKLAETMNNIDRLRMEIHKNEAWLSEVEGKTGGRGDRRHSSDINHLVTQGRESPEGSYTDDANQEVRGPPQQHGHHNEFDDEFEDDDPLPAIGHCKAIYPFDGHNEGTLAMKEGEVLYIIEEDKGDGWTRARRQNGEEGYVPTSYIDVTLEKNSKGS

[2] = molecular target: T2, cysteines in MDA-MB-231 and Ramos cells (Homo sapiens, UniProt Q96T76)
T2 sequence (Q96T76 1-1030): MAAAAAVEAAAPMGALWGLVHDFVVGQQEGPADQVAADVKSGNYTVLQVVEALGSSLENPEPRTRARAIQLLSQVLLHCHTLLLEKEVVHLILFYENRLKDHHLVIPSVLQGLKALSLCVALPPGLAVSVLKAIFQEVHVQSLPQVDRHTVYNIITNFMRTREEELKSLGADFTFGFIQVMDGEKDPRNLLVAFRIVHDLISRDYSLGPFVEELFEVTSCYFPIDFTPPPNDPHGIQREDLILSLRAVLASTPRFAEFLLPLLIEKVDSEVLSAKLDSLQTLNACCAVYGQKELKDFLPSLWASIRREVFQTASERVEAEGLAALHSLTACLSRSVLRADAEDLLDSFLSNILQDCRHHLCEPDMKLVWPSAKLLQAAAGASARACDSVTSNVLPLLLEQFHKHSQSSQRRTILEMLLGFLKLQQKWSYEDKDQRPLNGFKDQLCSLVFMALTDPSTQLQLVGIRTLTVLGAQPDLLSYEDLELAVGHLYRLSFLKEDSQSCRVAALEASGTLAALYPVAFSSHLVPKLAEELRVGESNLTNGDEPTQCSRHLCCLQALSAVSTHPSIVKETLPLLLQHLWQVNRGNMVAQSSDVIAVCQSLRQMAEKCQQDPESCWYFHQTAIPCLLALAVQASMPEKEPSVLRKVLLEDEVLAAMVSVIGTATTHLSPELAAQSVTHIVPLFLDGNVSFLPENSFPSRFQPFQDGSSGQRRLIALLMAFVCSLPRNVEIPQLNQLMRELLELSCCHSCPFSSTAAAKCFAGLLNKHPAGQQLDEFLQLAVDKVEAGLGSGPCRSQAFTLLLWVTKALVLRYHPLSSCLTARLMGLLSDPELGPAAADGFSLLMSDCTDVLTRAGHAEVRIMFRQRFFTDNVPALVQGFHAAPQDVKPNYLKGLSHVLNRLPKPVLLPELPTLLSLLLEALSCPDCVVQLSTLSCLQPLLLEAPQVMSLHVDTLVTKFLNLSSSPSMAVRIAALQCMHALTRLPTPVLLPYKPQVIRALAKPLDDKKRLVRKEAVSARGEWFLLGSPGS

[3] = molecular target: T3, cysteines in MDA-MB-231 and Ramos cells (Homo sapiens, UniProt Q99757)
T3 sequence (Q99757 60-166): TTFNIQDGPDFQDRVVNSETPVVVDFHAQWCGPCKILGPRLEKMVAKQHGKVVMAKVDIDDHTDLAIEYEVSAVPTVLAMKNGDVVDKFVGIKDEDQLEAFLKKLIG

[4] = molecular target: T4, cysteines in MDA-MB-231 and Ramos cells (Homo sapiens, UniProt P21980)
T4 sequence (P21980 1-687): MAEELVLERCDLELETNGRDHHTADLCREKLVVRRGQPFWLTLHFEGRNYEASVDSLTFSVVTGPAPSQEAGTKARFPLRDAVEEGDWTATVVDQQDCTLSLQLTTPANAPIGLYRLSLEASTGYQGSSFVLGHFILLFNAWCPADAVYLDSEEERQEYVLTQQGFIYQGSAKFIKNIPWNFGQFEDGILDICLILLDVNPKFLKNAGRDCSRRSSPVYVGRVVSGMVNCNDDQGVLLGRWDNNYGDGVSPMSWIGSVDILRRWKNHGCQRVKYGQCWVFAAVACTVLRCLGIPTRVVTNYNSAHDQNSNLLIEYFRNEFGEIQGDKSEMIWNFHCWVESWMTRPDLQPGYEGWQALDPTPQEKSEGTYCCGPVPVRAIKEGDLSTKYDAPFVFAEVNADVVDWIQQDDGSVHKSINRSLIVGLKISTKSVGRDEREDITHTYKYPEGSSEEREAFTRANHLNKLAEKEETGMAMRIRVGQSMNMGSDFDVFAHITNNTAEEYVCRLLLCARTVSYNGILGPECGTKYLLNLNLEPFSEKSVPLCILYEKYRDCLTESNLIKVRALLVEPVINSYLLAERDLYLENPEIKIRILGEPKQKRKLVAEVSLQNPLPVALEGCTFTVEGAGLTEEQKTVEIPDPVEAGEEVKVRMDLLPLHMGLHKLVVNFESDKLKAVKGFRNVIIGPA

SMILES	isoTOP-ABPP ratio Q5T0N5_C69 ([1]; 200 μM, insitu, 231)	isoTOP-ABPP ratio Q96T76_C848 ([2]; 200 μM, insitu, 231)	isoTOP-ABPP ratio P21980_C277 ([4]; 200 μM, insitu, 231)	isoTOP-ABPP ratio Q99757_C90 ([3]; 200 μM, insitu, 231)	further results
COc1ccc2c(c1)CCCN2C(=O)CCl [compound 2]	–	–	–	–	isoTOP-ABPP reactivity Q5T0N5_C69 FNBP1L ([1]; 200 μM, insitu, 231): 20.0; isoTOP-ABPP reactivity Q96T76_C848 MMS19 ([2]; 200 μM, insitu, 231): 3.9; isoTOP-ABPP reactivity Q99757_C90 TXN2 ([3]; 200 μM, insitu, 231): 10.1; isoTOP-ABPP reactivity P21980_C277 TGM2 ([4]; 200 μM, insitu, 231): 0.7
COc1ccc(C2CC(c3cccs3)=NN2C(=O)CCl)cc1 (centres unmarked) [compound 4]	–	–	–	–	isoTOP-ABPP reactivity Q5T0N5_C69 FNBP1L ([1]; 100 μM in situ 231): 20.0; isoTOP-ABPP reactivity Q96T76_C848 MMS19 ([2]; 100 μM in situ 231): 20.0; isoTOP-ABPP reactivity Q99757_C90 TXN2 ([3]; 100 μM in situ 231): 3.6; isoTOP-ABPP reactivity P21980_C277 TGM2 ([4]; 100 μM in situ 231): 0.5
COc1cc2c(cc1OC)CN(C(=O)CCl)CC2 [compound 8]	–	–	–	–	isoTOP-ABPP reactivity Q5T0N5_C69 FNBP1L ([1]; 200 μM, insitu, 231): 3.6; isoTOP-ABPP reactivity Q96T76_C848 MMS19 ([2]; 200 μM, insitu, 231): 1.7; isoTOP-ABPP reactivity Q99757_C90 TXN2 ([3]; 200 μM, insitu, 231): 4.5; isoTOP-ABPP reactivity P21980_C277 TGM2 ([4]; 200 μM, insitu, 231): 0.7
O=C(CCl)N1CCC(Cc2ccccc2)CC1 [compound 9]	–	–	–	–	isoTOP-ABPP reactivity Q96T76_C848 MMS19 ([2]; 200 μM, insitu, 231): 20.0; isoTOP-ABPP reactivity Q99757_C90 TXN2 ([3]; 200 μM, insitu, 231): 20.0; isoTOP-ABPP reactivity P21980_C277 TGM2 ([4]; 200 μM, insitu, 231): 2.3
O=C(CCl)N1CCN(S(=O)(=O)c2ccccc2F)CC1 [compound 10]	2.0	2.5	0.6	–	isoTOP-ABPP ratio, cysteine Q96T76_C819 ([2]; 200 μM, insitu, ramos): 3.0
Cn1cc(S(=O)(=O)N2CCOCC2)cc1C(=O)NC(=O)CCl [compound 11]	–	–	–	–	isoTOP-ABPP ratio Q5T0N5_C69 ([1]; 100 μM in situ 231): 1.3; isoTOP-ABPP ratio, cysteine Q96T76_C819 ([2]; 100 μM in situ 231): 0.8; isoTOP-ABPP ratio Q99757_C90 ([3]; 100 μM in situ 231): 2.7; isoTOP-ABPP ratio P21980_C277 ([4]; 100 μM in situ 231): 0.6
O=C(CCl)NC(=O)NC12CC3CC(CC(C3)C1)C2 [compound 12]	20.0	20.0	0.3	5.0	–
O=C(CCl)NCCc1c[nH]c2ccccc12 [compound 13]	1.0	0.6	0.8	–	isoTOP-ABPP ratio Q96T76_C848 ([2]; 200 μM, insitu, ramos): 1.5
O=C(CCl)NC12CC3CC(CC(C3)C1)C2 [compound 21]	0.8	0.7	0.7	4.3	–
CC(C)CCOCCNC(=O)CCl [compound 27]	0.6	0.5	0.6	6.3	isoTOP-ABPP ratio Q96T76_C819 ([2]; 200 μM, insitu, 231): 0.5
COc1ccccc1OCCNC(=O)CCl [compound 28]	–	0.8	0.4	–	–
O=C(CCl)N1CCN(CC(=O)N2CCOCC2)CC1 [compound 29]	–	–	–	–	isoTOP-ABPP ratio Q96T76_C848 ([2]; 200 μM, insitu, ramos): 1.0; isoTOP-ABPP ratio Q99757_C90 ([3]; 200 μM, insitu, ramos): 1.6
C=CC(=O)N(Cc1cccnc1)c1cc(C(F)(F)F)cc(C(F)(F)F)c1 [compound 31]	–	20.0	–	1.4	isoTOP-ABPP ratio Q96T76_C819 ([2]; 200 μM, insitu, 231): 20.0; isoTOP-ABPP ratio Q96T76_C819 ([2]; 200 μM, insitu, ramos): 20.0
C=CC(=O)Nc1cc(F)c(N2CCN(C(=O)OC(C)(C)C)CC2)c(F)c1 [compound 38]	1.5	–	1.4	3.6	isoTOP-ABPP ratio Q96T76_C819 ([2]; 200 μM, insitu, 231): 4.6
Cc1ccc(C=C(C#N)C(=O)NCCN2CCOCC2)cc1 [compound 41]	0.6	0.7	0.6	0.5	isoTOP-ABPP ratio Q96T76_C819 ([2]; 200 μM, insitu, 231): 0.6
CC1CCc2ccccc2N1C(=O)CCl (centres unmarked) [compound 45]	5.4	20.0	1.1	6.7	isoTOP-ABPP ratio Q96T76_C819 ([2]; 200 μM, insitu, 231): 20.0
O=C(CCl)Nc1cccc2ncccc12 [compound 51]	1.7	–	1.0	5.0	–
